From patent US8951969B2, “Compositions and methods for treating centrally mediated nausea and vomiting” (Helsinn Healthcare S.A., priority 2009, dated 2015)
Where two headings read alike, the source gives them in different places.

Legend:
[1] = target: T1, NK1 receptors in human brain (Homo sapiens, UniProt P25103); assay: Netupitant PET receptor occupancy study (11C-GR205171 tracer); assay type: in vivo; settings: for mean NK1-RO: 96 hours post dose
T1 construct: 6 healthy male volunteers (2 per dose level) receiving single doses of netupitant; from tissue; host or cells: brain of healthy male human volunteers, in vivo
Procedure: This was a randomized, open-label, positron emission tomography (PET) study using 11C-GR205171 as tracer in 6 healthy male volunteers (2 per dose level) receiving single doses of netupitant (100, 300 or 450 mg) to investigate the degree of occupancy of NK1 receptors in human brain, and to determine the relationship between plasma concentration of netupitant and NK1 receptor occupancy (RO).

[2] = test system: highly emetogenic chemotherapy (HEC)-induced nausea and vomiting; assay: Phase 2 clinical efficacy study, netupitant + palonosetron + dexamethasone; assay type: in vivo, human; set-up: Total Control, Overall: percent of patients / Total Control, Acute: percent of patients / Total Control, Delayed: percent of patients / Complete Protection, Overall: percent of patients / Complete Protection, Acute: percent of patients / Complete Protection, Delayed: percent of patients: concentration or dose not given beside the values; settings: MFAS
Description: A phase 2 trial evaluated three single doses of netupitant combined with palonosetron and dexamethasone compared to palonosetron alone and dexamethasone to obtain dose ranging information for netupitant used with oral palonosetron in the CINV patient population.
The objective of the study was to compare the efficacy and safety of three single oral doses of netupitant combined with oral palonosetron and given with dexamethasone, versus oral palonosetron-alone given with dexamethasone (without netupitant) for the prevention of highly emetogenic chemotherapy (HEC)-induced nausea and vomiting. The FDA-approved oral aprepitant regimen given with IV ondansetron and dexamethasone was included in the study as an active comparator for exploratory purposes. The FDA-approved oral palonosetron 0.5 mg. dose was used in each applicable treatment group in this study.
This was a multicenter, randomized, double-blind, double-dummy, parallel group, stratified study. Eligible patients were randomized (stratified by gender) to one of the following treatment groups: • Group 1—0.5 mg. oral palonosetron on Day 1 (with an oral dexamethasone standard regimen: 20 mg. on Day 1 and 8 mg. BID from Day 2 through Day 4) • Group 2—100 mg. oral netupitant plus 0.5 mg. oral palonosetron on Day 1 (with an oral dexamethasone adjusted regimen*: 12 mg. on Day 1 and 8 mg. daily from Day 2 through Day 4) • Group 3—200 mg. oral netupitant plus 0.5 mg. oral palonosetron on Day 1 (with an oral dexamethasone adjusted regimen*: 12 mg. on Day 1 and 8 mg. daily from Day 2 to Day 4) • Group 4—300 mg. oral netupitant plus 0.5 mg. oral palonosetron on Day 1 (with dexamethasone adjusted regimen*: 12 mg. on Day 1 and 8 mg. daily from Day 2 to Day 4) • Group 5—125 mg. oral aprepitant plus IV ondansetron 32 mg. (both on Day 1) then 80 mg. oral aprepitant on Day 2 and Day 3, (all with an oral dexamethasone adjusted regimen: 12 mg. on Day 1 and 8 mg. daily from Day 2 through Day 4)
The primary efficacy endpoint was the complete response rate (defined as no emetic episodes, no rescue medication) within 120 hours after the start of the highly emetogenic chemotherapy administration. Secondary efficacy endpoints were: • Complete response for the 0-24 hour interval (acute phase); and for the 25-120 hour interval (delayed phase); • Complete protection (defined as no emesis, no rescue therapy, no significant nausea); Total control (defined as no emesis, no rescue therapy and no nausea); No nausea (maximum VAS<5 mm); No significant nausea (maximum VAS<25 mm); No rescue medication; No emesis. These endpoints were evaluated for the 0-120 hour interval (overall), acute and delayed phase. • Time to first emetic episode, Time to first rescue medication, Time to treatment failure (based on time to the first emetic episode or time to the first rescue medication, whichever occurs first); • Severity of nausea for the overall, acute and delayed phase; ● Patient global satisfaction with anti-emetic therapy by means of VAS for each 24 hour interval.

[3] = Pharmacokinetics of combined dosage form: randomized, open, 3-way crossover study; assay type: in vivo; settings: human, fasting; for half-life / Tmax: median (range)
Procedure: The effects of palonosetron on the pharmacokinetics (PK) of netupitant and the effects of netupitant on the PK of palonosetron were examined in healthy volunteers. A randomized, open, 3-way crossover study was conducted. Each subject participated in 3 treatment periods, each lasting approximately 12 days (Day −1 to Day 11). The treatment periods were separated by wash-out periods of no less than 14 days (between Day 1 of any 2 consecutive treatment periods). Treatment A: oral netupitant 450 mg. administered as single dose of three 150 mg. capsules. Treatment B: oral palonosetron 0.75 mg. and oral netupitant 450 mg. administered simultaneously as three capsules of 150 mg. netupitant followed by 1 capsule of 0.75 mg. palonosetron. Treatment C: oral palonosetron 0.75 mg. administered as single dose as one 0.75 mg. capsule. Doses were administered under fasting conditions. Subjects fasted over-night for approximately 10 hours. Water, however, was permitted up to 1 hour pre-dose. Food intake was permitted 4 hours post-dose, and water was allowed ad libitum 1 hour post-dose. Doses were administered with the subject in an upright position. The subjects remained in an upright position for 4 hours post-dose. The capsules were swallowed whole with 250 mL of room-temperature tap water. Repeated PK blood sampling (for netupitant and/or palonosetron) was performed. The primary PK variables assessed for netupitant and palonosetron were the maximum plasma concentration observed (Cmax), the area under the plasma concentration versus time curve from time zero to the last quantifiable sampling time point (t) (AUC0-t), and the area under the plasma concentration versus time curve from time zero to infinity (AUC0-inf). The secondary PK variables assessed were the terminal elimination half-life (t1/2, z), and the time at which the maximum plasma concentration was observed (tmax). Results are depicted in below Tables 3 and 4, as well as FIGS. 2 and 3.

[4] = Netupitant + dexamethasone drug interaction study; assay type: in vivo, human
Procedure: The effect of netupitant on orally administered dexamethasone pharmacokinetics was evaluated in this study. This was a randomized, open, 3-period crossover study utilizing an incomplete Latin Square design where subjects were given dexamethasone alone, or oral Netupitant 100 mg., 300 mg. or 450 mg. each given with dexamethasone. Netupitant was given orally on Day 1 only. The dexamethasone regimen for each treatment was 20 mg. orally Day 1, followed by 8 mg. orally every 12 hours from Day 2 through Day 4. Nineteen subjects (12 male and 7 female) completed the study (i.e., all 3 treatment periods).

[5] = 0-24 h, Group 1 (Palo alone) / Group 5 (Aprepitant Regimen)
[6] = 0-120 h, Group 1 (Palo alone) / Group 5 (Aprepitant Regimen)
[7] = 25-120 h, Group 1 (Palo alone) / Group 5 (Aprepitant Regimen)
[8] = HEC (cisplatin) patients, Group 1 (Palo alone) / Group 5 (Aprepitant Regimen)
[9] = co-administration of 100 mg netupitant (oral, Day 1) vs dexamethasone alone
[10] = co-administration of 300 mg netupitant (oral, Day 1) vs dexamethasone alone
[11] = co-administration of 450 mg netupitant (oral, Day 1) vs dexamethasone alone

T1 sequence (P25103 whole entry): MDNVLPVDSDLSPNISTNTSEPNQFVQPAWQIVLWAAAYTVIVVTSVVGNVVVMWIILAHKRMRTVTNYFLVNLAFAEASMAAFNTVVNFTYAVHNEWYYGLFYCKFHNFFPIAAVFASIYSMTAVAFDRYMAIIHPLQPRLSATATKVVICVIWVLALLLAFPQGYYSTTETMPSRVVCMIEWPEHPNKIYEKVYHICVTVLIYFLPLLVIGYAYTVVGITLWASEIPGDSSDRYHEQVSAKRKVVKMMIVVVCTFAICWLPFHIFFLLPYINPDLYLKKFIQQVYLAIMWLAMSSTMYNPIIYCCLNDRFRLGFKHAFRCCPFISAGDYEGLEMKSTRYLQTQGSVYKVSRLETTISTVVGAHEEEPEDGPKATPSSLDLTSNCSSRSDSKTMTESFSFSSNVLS

Question: For `Cc1ccccc1-c1cc(N2CCN(C)CC2)ncc1N(C)C(=O)C(C)(C)c1cc(C(F)(F)F)cc(C(F)(F)F)c1` [Netupitant, 2-[3,5-bis(trifluoromethyl)phenyl]-N,2-dimethyl-N-[4-(2-methylphenyl)-6-(4-methylpiperazin-1-yl)pyridin-3-yl]propanamide], which “mean NK1-RO” value ([1]; 100 mg dose group, 4 of 6 regions) is on record?
Answer: over 70%

Question: What about the “mean NK1-RO” value ([1]; 450 mg dose group, 5 of 6 regions) of the same compound?
Answer: ≥ 80%

Question: What about the “NK1 receptor occupancy (NK1-RO)” value ([1]; 6 hours post dose, striatum, occipital cortex, frontal cortex and anterior cingulate, reached in 3 of 6 subjects (1 at 300 mg, 2 at 450 mg single oral dose)) of the same compound?
Answer: ≥ 90%

Question: What about the “No Emesis, Overall: percent of patients” value ([2]; 0-120 h, netupitant 100 mg + palonosetron 0.5 mg oral Day 1, with dexamethasone) of the same compound?
Answer: 87.4%

Question: And the “No Emesis, Overall: percent of patients” value ([2]; 0-120 h, netupitant 200 mg + palonosetron 0.5 mg oral Day 1, with dexamethasone)?
Answer: 87.6%

Question: What about the “No Emesis, Overall: percent of patients” value ([2]; 0-120 h, netupitant 300 mg + palonosetron 0.5 mg oral Day 1, with dexamethasone) of the same compound?
Answer: 91.1%

Question: And the “CR, Overall Phase, 0-120 h: Percent of Patients” value ([2]; HEC (cisplatin) patients, netupitant 100 mg + palonosetron 0.5 mg oral Day 1, with dexamethasone)?
Answer: 87.4%

Question: What about the “CR, Overall Phase, 0-120 h: Percent of Patients” value ([2]; HEC (cisplatin) patients, netupitant 200 mg + palonosetron 0.5 mg oral Day 1, with dexamethasone) of the same compound?
Answer: 87.6%

Question: What about the “CR, Overall Phase, 0-120 h: Percent of Patients” value ([2]; HEC (cisplatin) patients, netupitant 300 mg + palonosetron 0.5 mg oral Day 1, with dexamethasone) of the same compound?
Answer: 89.6%

Question: And the Cmax ([3]; plasma netupitant, oral netupitant 450 mg single dose, mean (SD))?
Answer: 650 ng/mL

Question: What about the AUC(0-t) ([3]; plasma netupitant, oral netupitant 450 mg single dose, mean (SD), read-out: Netupitant AUC0-t) of the same compound?
Answer: 22800 ng·h/mL

Question: And the AUC ([3]; plasma netupitant, oral netupitant 450 mg single dose, mean (SD), read-out: Netupitant AUCo-inf)?
Answer: 25900 ng·h/mL

Question: And the half-life ([3]; plasma netupitant, oral netupitant 450 mg single dose, read-out: Netupitant t1/2, z (converted))?
Answer: 71.8 h

Question: And the Tmax ([3]; plasma netupitant, oral netupitant 450 mg single dose, read-out: Netupitant tmax)?
Answer: 4.5 h

Question: Which results are given for `Cl.O=C1c2cccc3c2[C@H](CCC3)CN1[C@@H]1CN2CCC1CC2` [Palonosetron, (3aS)-2-[(S)-1-Azabicyclo[2.2.2]oct-3-yl]-2,3,3a,4,5,6-hexahydro-1-oxo-1Hberiz[de]isoquinoline hydrochloride]?
Answer: Complete Protection, Acute: percent of patients [2, 5]: 87.5%; No Emesis, Acute: percent of patients [2, 5]: 89.7%; No Rescue, Acute: percent of patients [2, 5]: 97.8%; Total Control, Acute: percent of patients [2, 5]: 71.3%; No Emesis, Overall: percent of patients [2, 6]: 76.5%; No Rescue, Overall: percent of patients [2, 6]: 95.6%; Complete Protection, Delayed: percent of patients [2, 7]: 73.5%; No Emesis, Delayed: percent of patients [2, 7]: 80.1%; No Rescue, Delayed: percent of patients [2, 7]: 97.1%; Total Control, Delayed: percent of patients [2, 7]: 52.2%; CR, Acute Phase, −24 h: Percent of Patients [2, 8]: 89.7%; CR, Delayed Phase, 25-120 h: Percent of Patients [2, 8]: 80.1%; CR, Overall Phase, 0-120 h: Percent of Patients [2, 8]: 76.5%; No Nausea, Acute: percent of patients ([2]; maximum VAS<5 mm, 0-24 h, Group 1 (Palo alone) / Group 5 (Aprepitant Regimen)): 75.0%; No Nausea, Overall: percent of patients ([2]; maximum VAS<5 mm, 0-120 h, Group 1 (Palo alone) / Group 5 (Aprepitant Regimen)): 50.7%; No Nausea, Delayed: percent of patients ([2]; maximum VAS<5 mm, 25-120 h, Group 1 (Palo alone) / Group 5 (Aprepitant Regimen)): 53.7%; No Significant Nauea, Acute: percent of patients ([2]; maximum VAS<25 mm, 0-24 h, Group 1 (Palo alone) / Group 5 (Aprepitant Regimen)): 93.4%; No Significant Nauea, Overall: percent of patients ([2]; maximum VAS<25 mm, 0-120 h, Group 1 (Palo alone) / Group 5 (Aprepitant Regimen)): 79.4%; No Significant Nauea, Delayed: percent of patients ([2]; maximum VAS<25 mm, 25-120 h, Group 1 (Palo alone) / Group 5 (Aprepitant Regimen)): 80.9%; Total Control, Overall: percent of patients ([2]; no emesis, no rescue therapy and no nausea, 0-120 h, Group 1 (Palo alone) / Group 5 (Aprepitant Regimen)): 50.0%; Complete Protection, Overall: percent of patients ([2]; no emesis, no rescue therapy, no significant nausea, 0-120 h, Group 1 (Palo alone) / Group 5 (Aprepitant Regimen)): 69.9%; half-life ([3]; plasma palonosetron, oral palonosetron 0.75 mg single dose, read-out: Palonosetron t1/2, z (converted)): 34.7 h; Tmax ([3]; plasma palonosetron, oral palonosetron 0.75 mg single dose, read-out: Palonosetron tmax): 5.02 h

Question: With `C[C@@H]1C[C@H]2[C@@H]3CCC4=CC(=O)C=C[C@]4(C)[C@@]3(F)[C@@H](O)C[C@]2(C)[C@@]1(O)C(=O)CO` [dexamethasone] as the compound, how does the “Dexamethasone Cmin on Days 2-4, fold increase” value ([4]; co-administration of 100 mg netupitant) read?
Answer: approximately 2.8 fold

Question: And the “AUC0-24 (Day 1) of dexamethasone, fold increase” value [4, 9]?
Answer: 1.5 fold

Question: What about the “AUC24-36 (Day 2) of dexamethasone, fold increase” value [4, 9] of the same compound?
Answer: 2.1 fold

Question: What about the “AUC84-108 and AUC84-inf (Day 4) of dexamethasone, fold increase” value (“AUC84-108 and AUC84-inf … fold increase” for short) [4, 9] of the same compound?
Answer: 1.7 fold

Question: And the “Dexamethasone Cmin on Days 2-4, fold increase” value ([4]; co-administration of 300 mg netupitant)?
Answer: ~4.3 fold

Question: What about the “AUC0-24 (Day 1) of dexamethasone, fold increase” value [4, 10] of the same compound?
Answer: 1.7 fold

Question: What about the “AUC24-36 (Day 2) of dexamethasone, fold increase” value [4, 10] of the same compound?
Answer: 2.4 fold

Question: What about the “AUC84-108 and AUC84-inf … fold increase” value [4, 10] of the same compound?
Answer: 2.4 fold

Question: What about the “Dexamethasone Cmin on Days 2-4, fold increase” value ([4]; co-administration of 450 mg netupitant) of the same compound?
Answer: ~4.6 fold

Question: And the “AUC0-24 (Day 1) of dexamethasone, fold increase” value [4, 11]?
Answer: 1.8 fold

Question: And the “AUC24-36 (Day 2) of dexamethasone, fold increase” value [4, 11]?
Answer: 2.6 fold

Question: What about the “AUC84-108 and AUC84-inf … fold increase” value [4, 11] of the same compound?
Answer: 2.7 fold

Question: What about the “Dexamethasone Cmax on Day 1, fold increase” value ([4]; co-administration with 100 mg netupitant) of the same compound?
Answer: 1.1 fold

Question: And the “Dexamethasone Cmax on Day 1, fold increase” value ([4]; co-administration with 300 mg netupitant)?
Answer: 1.1 fold

Question: What about the “Dexamethasone Cmax on Day 1, fold increase” value ([4]; co-administration with 450 mg netupitant) of the same compound?
Answer: 1.2 fold

Question: And the “Dexamethasone Cmax on Day 2 and Day 4, fold increase” value ([4]; subjects administered netupitant (100, 300 or 450 mg))?
Answer: approximately 1.7 fold
